Experiment [1] addresses SARS-CoV-2 spike protein (Severe acute respiratory syndrome coronavirus 2, UniProt P0DTC2). The class given is binding. The following applies: spike protein 50 nM, polysaccharide 1 μM.
The subject of experiment [2] is Pseudovirus particles containing surface Wuhan-Hu-1 SGP. It is filed as cell-based, SARS-CoV-2.

The values below come from patent US20250090572A1 (priority 2020, published 2025).

Regarding heparin, the Binding inhibition in experiment [1] (competitive binding inhibition between polysaccharide-spike protein complex and heparin-SPR chip) is recorded as 82 ± 7.5%. In experiment [1], the “competition with immobilized heparin for spike protein binding” value is “competed with heparin for spike protein binding”. In experiment [2], the half-inhibitory concentration (IC50) was determined as 4.6 µg/mL.

Consider pentosan polysulfate [PPS], for which, in experiment [2], the IC50 amounted to 1.6 µg/mL.
